Laboratory results published in patent US12258360B2, “Compositions and methods for treatment of anticancer-drug resistant cancers” (THE GEORGE WASHINGTON UNIVERSITY, priority 2020, dated 2025).

Experiments:
And-1 [1] = target: T1, And-1 (Homo sapiens, UniProt O75717); test: cellular thermal shift assay; type: binding; design: endogenous in cells; host or cells: IGROV1 CR; settings: cells incubated 8 hours, compared to DMSO
T1 sequence (O75717 1-1129): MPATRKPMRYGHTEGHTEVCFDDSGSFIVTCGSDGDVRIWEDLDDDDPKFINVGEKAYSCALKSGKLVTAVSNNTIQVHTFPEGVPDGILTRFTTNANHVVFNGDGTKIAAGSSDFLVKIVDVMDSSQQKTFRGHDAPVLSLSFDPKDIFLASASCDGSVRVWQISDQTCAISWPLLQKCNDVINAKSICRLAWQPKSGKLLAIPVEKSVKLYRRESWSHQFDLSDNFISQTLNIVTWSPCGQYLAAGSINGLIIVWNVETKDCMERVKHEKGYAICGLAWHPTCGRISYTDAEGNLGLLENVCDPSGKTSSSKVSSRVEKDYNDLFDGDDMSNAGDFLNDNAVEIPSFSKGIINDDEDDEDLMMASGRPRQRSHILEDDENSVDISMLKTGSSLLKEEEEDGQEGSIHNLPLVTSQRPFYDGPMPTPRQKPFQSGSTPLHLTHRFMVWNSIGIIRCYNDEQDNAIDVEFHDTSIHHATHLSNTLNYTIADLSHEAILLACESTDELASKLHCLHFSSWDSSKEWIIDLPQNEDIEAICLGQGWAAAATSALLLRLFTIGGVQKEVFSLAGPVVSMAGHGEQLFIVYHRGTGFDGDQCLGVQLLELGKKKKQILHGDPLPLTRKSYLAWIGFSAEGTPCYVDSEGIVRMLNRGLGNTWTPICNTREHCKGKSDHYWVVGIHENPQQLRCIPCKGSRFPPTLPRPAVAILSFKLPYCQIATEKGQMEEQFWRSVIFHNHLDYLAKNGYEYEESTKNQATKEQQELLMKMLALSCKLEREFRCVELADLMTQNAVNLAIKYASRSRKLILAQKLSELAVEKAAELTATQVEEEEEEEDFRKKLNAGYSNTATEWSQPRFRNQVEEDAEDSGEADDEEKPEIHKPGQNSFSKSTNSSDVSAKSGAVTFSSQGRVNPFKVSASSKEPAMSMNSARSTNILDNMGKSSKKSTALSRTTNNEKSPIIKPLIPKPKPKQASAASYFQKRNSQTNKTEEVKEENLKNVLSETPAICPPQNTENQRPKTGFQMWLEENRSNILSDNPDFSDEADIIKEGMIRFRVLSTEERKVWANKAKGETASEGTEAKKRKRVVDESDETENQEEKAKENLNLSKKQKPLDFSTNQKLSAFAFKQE
Method: To explore whether And-1 inhibitors directly bind to And-1, cellular thermal shift assays were performed in which a small molecule binds to a protein resulting in thermal stabilization of the protein. Briefly, cells were incubated with MG132 (10 μM), DHS, CH3, CH10 or DMSO for 8 hours. After washing with ice-cold PBS (suppled with Protease Inhibitor Cocktail), cells were aliquoted into PCR tubes (100 μL each) and then incubated at different temperatures (from 25° C. to 71° C.) for 4 minutes. After the cells were frozen and thawed twice using liquid nitrogen, proteins were isolated from the cells after centrifugation and incubated at 70° C. for 10 minutes for analysis by western blotting.

[2] = tested on: recruitment of CtIP to DSB sites in IGROV1 cells; test: immunofluorescence assay of CtIP co-localization with γH2AX after micro-irradiation; type: cell-based, human; settings: 1 μM, 30 minutes post irradiation
Method: H2AX (H2A histone family member X) becomes phosphorylated on serine 139 (wherein the phosphorylated form is then called […]) as a reaction on DNA double-strand breaks (DSB). And-1 regulates DSB end resection by establishing a condition or acting as a platform for recruitment of the tumor suppressor protein CtIP—a CtBP (carboxy-terminal binding protein)-interacting protein, to the DSB sites. […] In brief, IGROV1 cells were cultured on coverslips coated with 0.01% of poly-L-lysine. After treatment, the cells were then washed once with PBS, then pre-extracted with 0.5% Triton X-100 extraction buffer (10 mM PIPES pH 7.0, 100 mM NaCl, 3 mM MgCl2 and 300 mM sucrose) on ice for 5 minutes. After washing with PBS, cells were fixed with 4% paraformaldehyde in PBS for 15 minutes. Cells were then washed and incubated for 10 minutes in blocking buffer (PBS containing 3% BSA and 0.02% Tween-20) and subsequently incubated for 1 hour with a primary antibody at room temperature. Cells were washed three times with PBS-T (PBS containing 0.02% Tween-20) and then incubated with a secondary antibody (e.g., rabbit Alexa Fluor-594 and mouse Alexa Fluor-488). After washing with PBS-T, cells were mounted with Fluoromount G containing DAPI (4′,6-diamidino-2-phenylindole—a fluorescent stain that binds strongly to adenine-thymine-rich regions in DNA). Slides were then imaged using a Nikon Eclipse 80i microscope. […]

IGROV1 cells = test: flow cytometry (FACS) of propidium-iodide stained IGROV1 cells; type: cell-based, human; settings: 1 μM
And-1 [3] = target: T1, And-1; test: immunoblot analysis of And-1 expression in IGROV1 cells; type: cell-based; design: endogenous in cells; host or cells: IGROV1 CR
Method: The high IC50 of resveratrol compromises its potential clinical application; therefore, resveratrol was used as a lead compound to screen 12 analogs of resveratrol for potent compounds that can inhibit And-1 (FIG. 14). […] To perform immunoblot analyses, cells were first treated with increasing concentrations of the 12 analogs. After treatment, the cells were harvested and then lysed with RIPA buffer protease inhibitor and phosphatase inhibitor cocktail. Protein concentration was determined by the BCA protein assay. Equal amounts of whole cell lysates were separated on sodium dodecyl sulfate polyacrylamide gel electrophoresis (SDS-PAGE) and transferred onto nitrocellulose membranes. Membranes were then incubated in blocking solution (5% non-fat milk in 20 mM TRIS-HCl, 150 mM NaCl, 0.1% Tween-20) (TBST), followed by incubation with the indicated antibodies at 4° C. overnight. The membranes were then washed in TBST and incubated with HRP-conjugated secondary antibodies for 1 hour at room temperature (21° C.±2° C.). Antibody detection was performed with an enhanced chemiluminescence reaction.

NCI 60 tumor cell lines = NCI 60 tumor cell lines growth assay; type: cell-based
Method: To test this hypothesis, inhibition of CH3 on cancer cells was evaluated by using NCI 60 tumor cell lines.

Compound: OB1OCc2cc(/C=C/c3ccc(Cl)c(Cl)c3)ccc21 [CH3]
- thermal stabilization of And-1 protein at higher temperatures (And-1 [1]): stabilized
- recruitment of CtIP to DSB sites induced by micro-irradiation [2]: significantly decreased
- percentage of cells in the S-phase (IGROV1 cells): reduced the percentage of cells in the S-phase
- And-1 protein levels (And-1 [3]; 5 μM for 48 hours, without MG132): reduced And-1 protein levels
- IC50 (And-1 [3]; immunoblot, read-out: IC50 for inhibition of And-1 expression): 2080 nM
- cancer cell growth inhibition (NCI 60 tumor cell lines; 0.01-100 μM, 60 tumor cell lines): inhibited cancer cell growth in all 60 tumor cell lines in a dose dependent manner
- mean growth percentage (NCI 60 tumor cell lines; one dose assay, 10 μM, against 60 tumor cell lines): 1.84%
